SMILES strings stand for the structures.

In general, IC50 refers to the point on the concentration scale where inhibition reaches its midpoint. A high value points to weaker potency.

The test in a line: Cytotoxicity in T79-A3 (NR-positive) cell lines.
Compound `NC(=O)c1cc(N2CC2)c([N+](=O)[O-])cc1[N+](=O)[O-]` returned a half-inhibitory concentration (IC50) of 0.89 µM.
With `NC(=O)c1cc(N(CCCl)CCCl)c([N+](=O)[O-])cc1[N+](=O)[O-]` the figure was 15 µM; with `NC(=O)c1cc([N+](=O)[O-])cc([N+](=O)[O-])c1N(CCBr)CCBr` [2-[Bis-(2-bromo-ethyl)-amino]-3,5-dinitro-benzamide], 0.19 µM; with `NC(=O)c1cc([N+](=O)[O-])cc([N+](=O)[O-])c1N(CCCl)CCCl` [2-[Bis-(2-chloro-ethyl)-amino]-3,5-dinitro-benzamide], 7.5 µM.
With `O=C(NCC(O)CO)c1cc([N+](=O)[O-])cc([N+](=O)[O-])c1N(CCCl)CCCl` (stereo unspecified) [2-[Bis-(2-chloro-ethyl)-amino]-N-(2,3-dihydroxy-propyl)-3,5-dinitro-benzamide] the figure was 13 µM; with `NC(=O)c1cc([N+](=O)[O-])cc([N+](=O)[O-])c1N(CCI)CCI` [2-[Bis-(2-iodo-ethyl)-amino]-3,5-dinitro-benzamide], 0.1 µM; with `O=C(NCC(O)CO)c1cc([N+](=O)[O-])cc([N+](=O)[O-])c1N(CCI)CCI` (stereo unspecified) [2-[Bis-(2-iodo-ethyl)-amino]-N-(2,3-dihydroxy-propyl)-3,5-dinitro-benzamide], 4 µM.
`NC(=O)c1c([N+](=O)[O-])ccc(N(CCCl)CCCl)c1[N+](=O)[O-]` [3-[Bis-(2-chloro-ethyl)-amino]-2,6-dinitro-benzamide] came in with an IC50 of over 1000 µM.
Turning to `CN(C)CCNC(=O)c1c([N+](=O)[O-])ccc(N(CCCl)CCCl)c1[N+](=O)[O-]` [3-[Bis-(2-chloro-ethyl)-amino]-N-(2-dimethylamino-ethyl)-2,6-dinitro-benzamide], the IC50 worked out at 895 µM.
`NC(=O)c1cc(N(CCBr)CCBr)c([N+](=O)[O-])cc1[N+](=O)[O-]` [5-(bis(2-bromoethyl)amino)-2,4-dinitrobenzamide]: the 50% inhibitory concentration (IC50) amounted to 0.25 µM.
With `NC(=O)c1cc(N(CCI)CCI)c([N+](=O)[O-])cc1[N+](=O)[O-]` [5-(bis(2-iodoethyl)amino)-2,4-dinitrobenzamide] the figure was 0.23 µM; with `O=C(NCC(O)CO)c1cc(N(CCI)CCI)c([N+](=O)[O-])cc1[N+](=O)[O-]` (stereo unspecified) [5-(bis(2-iodoethyl)amino)-N-(2,3-dihydroxypropyl)-2,4-dinitrobenzamide], 1.9 µM.
Under `CS(=O)(=O)CCN(CCCl)c1cc(C(N)=O)c([N+](=O)[O-])cc1[N+](=O)[O-]` [5-[(2-Chloro-ethyl)-(2-methanesulfonyl-ethyl)-amino]-2,4-dinitro-benzamide] stands 3.4 µM; under `CS(=O)(=O)c1cc([N+](=O)[O-])c(C(N)=O)cc1N(CCCl)CCCl` [5-[Bis-(2-chloro-ethyl)-amino]-4-methanesulfonyl-2-nitro-benzamide], 58 µM; under `O=C(NCC(O)CO)c1cc(N(CCCl)CCCl)c([N+](=O)[O-])cc1[N+](=O)[O-]` (stereo unspecified) [5-[Bis-(2-chloro-ethyl)-amino]-N-(2,3-dihydroxy-propyl)-2,4-dinitro-benzamide], 89 µM.
With `CS(=O)(=O)CCN(CCS(C)(=O)=O)c1cc(C(N)=O)c([N+](=O)[O-])cc1[N+](=O)[O-]` [5-[Bis-(2-methanesulfonyl-ethyl)-amino]-2,4-dinitro-benzamide] the figure was 9.3 µM.
